Common to all, as to assay type: cell-based
Experiment [1] has as its system human mast cells. In words: Calcium flux assay in antigen-stimulated human mast cells. As to conditions: 2 hours treatment, NP-BSA stimulation. The procedure: (§1) Human mast cells were derived from bone marrow CD34+ cells from six healthy donors for up to eight weeks by culturing CD34+ cells in StemSpan SFEM II (Stem Cell Technologies) supplemented with stem cell factor (SCF; 100 ng/mL; R&D System), IL-6 (R&D Systems), IL-3 (R&D Systems) and 1% penicillin/streptomycin (P/S; Gibco) for the first 10 days and in StemSpan SFEM II supplemented with SCF and IL-6 and 1% P/S for the remaining time in culture. […] Supernatant was collected and histamine levels were measured using a Histamine ELISA kit (Eagle Biosciences). […] Percent of activated mast cells was calculated as number of activated mast cells over the total number of mast cells.
Compound 128 Inhibits Calcium Signaling in Human Mast Cells. […] The median fluorescence intensity of cytosolic calcium was measured across the stimulation time period and graphed to represent the calcium influx profile. The area under the curve (AUC) of the calcium influx profile was calculated and normalized as a percent of stimulated control. […]

For experiment [2], the system named is human mast cells. In words: Antigen-induced cytokine production in ISM-like and healthy mast cells. Particulars: two hours treatment, antigen four hours. Here is the method:
as §1
Human mast cells were differentiated from bone marrow CD34+ cells from two healthy donors, cultured and sensitized in ISM-like and healthy mast cell conditions as set forth in Example 4, treated with Compound 128 for two hours and stimulated with antigen for four hours. Supernatant was collected and cytokine levels were measured using the BD Cytometric Bead Array (CBA) human soluble protein master buffer kit (Becton Dickinson) and BD CBA human soluble protein flex sets for IL-8, MCP-1, MIP-1a, IL-13 and IL-10 (Becton Dickinson). […]

Experiment [3] addresses BTK (Homo sapiens, UniProt Q06187). In words: Phospho-BTK (pBTK) test in basophils, whole blood. More on the design: Human mast cells were differentiated from bone marrow CD34+ cells from six healthy donors; endogenous in cells; host or cells: human mast cells differentiated from bone marrow CD34+ cells of healthy donors, cultured with SCF. Particulars: 24 hours exposure, CCR3+ basophils, anti-FcεR stimulation; read-out: average EC50 (n=4), pBTK (Y223) normalized to DMSO control. Here is the method: Blood from four healthy donors was drawn and Compound 128 was added at various concentrations (10 µM, 3.16 μM, 1 μM, 0.3 μM, 0.1 μM, 0.03 μM, or 0 μM). Blood samples were gently rocked at room temperature for 24 hours. The pBTK test was then conducted by (1) stimulating the blood with anti-FcεR stimulation control from Flow Cast Basophil Activation Kit and staining cells for CCR3 (Becton Dickinson) and a near-IR dead cell stain (nIR; Invitrogen) for 15 minutes at 37° C., (2) lysing red blood cells and fixing cells with Phosflow Lyse/Fix Buffer (Becton Dickinson) at 37° C. for 10 minutes, (3) washing once with 1× phosphate-buffered saline (PBS), (4) washing twice with Perm/Wash buffer (Becton Dickinson), (5) permeabilizing cells with Perm/Wash buffer on ice for 15 minutes, (6) staining cells for rabbit anti-human pBTK (Abcam) for 30 minutes on ice, (7) washing twice with Perm/Wash buffer, (8) staining with goat anti-rabbit secondary antibody (Invitrogen) for 30 minutes on ice, (9) washing twice with Perm/Wash buffer, and (10) acquiring data on a flow cytometer. Live basophils were defined as nIR−, CCR3+ and low side scatter. The median fluorescence intensity of phosphorylated BTK was measured and percent of stimulated control was calculated. […] The percent of stimulated control of activated mast cells (CD63+) was calculated. […]

Sequence of BTK (Q06187 whole entry): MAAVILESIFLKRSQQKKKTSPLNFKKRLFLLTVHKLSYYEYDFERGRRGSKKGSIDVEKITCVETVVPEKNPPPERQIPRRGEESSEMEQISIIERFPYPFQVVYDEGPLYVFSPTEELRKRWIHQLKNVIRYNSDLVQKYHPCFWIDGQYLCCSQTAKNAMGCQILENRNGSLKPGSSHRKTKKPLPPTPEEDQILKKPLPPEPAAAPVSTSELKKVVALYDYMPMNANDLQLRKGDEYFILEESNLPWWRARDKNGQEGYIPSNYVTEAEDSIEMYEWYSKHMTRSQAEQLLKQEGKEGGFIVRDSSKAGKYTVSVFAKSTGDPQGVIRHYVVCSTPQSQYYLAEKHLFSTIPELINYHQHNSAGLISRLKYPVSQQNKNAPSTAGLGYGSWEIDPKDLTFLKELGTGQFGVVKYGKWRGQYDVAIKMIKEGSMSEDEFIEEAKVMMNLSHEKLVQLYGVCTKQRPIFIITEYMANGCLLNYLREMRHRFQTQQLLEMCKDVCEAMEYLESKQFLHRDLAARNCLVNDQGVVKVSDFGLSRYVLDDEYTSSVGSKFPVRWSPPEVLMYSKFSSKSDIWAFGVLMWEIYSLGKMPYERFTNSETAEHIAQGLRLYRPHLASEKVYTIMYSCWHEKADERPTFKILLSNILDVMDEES

`C=CC(=O)N1CCC(F)(CNc2ncnc(N)c2-c2ccc(Oc3ccccc3)cc2)CC1` [Compound 128, 1-(4-(((6-amino-5-(4-phenoxyphenyl)pyrimidin-4-yl)amino)methyl)-4-fluoropiperidin-1-yl)prop-2-en-1-one]: the “calcium influx, percent of stimulated control” value in experiment [1] (ISM-like (+SCF) mast cells) is “less than 7%”; in experiment [1] (healthy (−SCF) mast cells), below 3%. The “IgE-mediated cytokine production (IL-8, MCP-1, MIP-1a, IL-13, IL-10)” value in experiment [2] is “inhibited”. Moreover, the concentration giving a half-maximal response (EC50) (as a rule, the concentration that produces a half-maximal response) in experiment [3] was 130 nM.

For the origin of these results see patent US20250360130A1, “METHODS OF TREATING INDOLENT SYSTEMIC MASTOCYTOSIS” (Telios Pharma Inc., priority 2024, published 2025).
